Experimental data: patent US10869931B2, “Polyethylene glycol-modified angiogenesis inhibitor HM-1 and application thereof” (NANJING ANJI BIOLOGICAL TECHNOLOGY CO.,LTD, priority 2016, dated 2020)
Values joined by “and” are separate entries in the source; they are usually repeats but may differ in a detail not shown here. Equal values may be shown once. Marks after values point to notes of the source that are not given here. Where no end group is shown, it is not given here.

How the values were obtained:
Liver cancer tumor cells = test: MTT proliferation inhibition, liver cancer cells; assay type: cell-based, human; set-up: concentration or dose not given beside the values; conditions: 48 h
Method: (§1) The activity of mPEG-HM-1 to inhibit the growth of various tumor cells was examined by MTT assay. The tumor cells were cultured to a concentration of 90% or more in a 37° C., 5% CO2 incubator and collected by trypsinization. The cells were resuspended in the culture medium and counted under a microscope to adjust the cell concentration to 2×10^4 cells/mL, the cell suspension was inoculated into a 96-well plate at 100 μL/well and incubated overnight at 37° C. in a 5% CO2 incubator. mPEG-HM-1 was diluted with the culture solution to each predetermined concentration. Docetaxel is diluted to the final concentration with the culture medium. After the cells were fully attached, each dilution was added to a 96-well plate (100 μL/well). The mPEG-HM-1 dilution was added as a drug-administered group, and docetaxel was added as a positive control group, and a culture solution without any drug was used as a negative control group. Incubate for 48 h at 37° C. in a 5% CO2 incubator. 5 mg/mL of MTT was added to a 96-well plate at 20 μL per well, and incubation was continued for 4 hours. The medium was aspirated, dissolved in 150 μL of DMSO per well, and gently mixed by shaking for 10 min. The absorbance was measured at a measurement wavelength of 570 nm and a reference wavelength of 630 nm using a microplate reader, and the rate of growth inhibition (proliferation inhibition, PI) was calculated. The formula is as follows: PI (%)=1−administration group/negative group
(§2) The test was repeated 3 times independently, and the results obtained by the test were expressed as mean±SD, and the test results are shown in Table 15 to Table 18.

[1] = test system: Prostate cancer tumor cells; test: MTT proliferation inhibition, prostate cancer cells; assay type: cell-based, human; set-up: concentration or dose not given beside the values; conditions: 48 h
Method: as §1, §2

[2] = test system: Uterine cancer tumor cells; test: MTT proliferation inhibition, uterine cancer cells; assay type: cell-based, human; set-up: concentration or dose not given beside the values; conditions: 48 h
Method: as §1, §2

[3] = test system: human retinal vascular endothelial cells (HRCEC); test: MTT proliferation of human retinal vascular endothelial cells; assay type: cell-based; conditions: 48 h; for Inhibition rate: HRCEC proliferation; for A570 nm-A630 nm: HRCEC; for A570 nm-A630 nm / inhibition rate of HRCEC proliferation: MTT
Method: The activity of the angiogenesis inhibitor polypeptide to inhibit proliferation of human retinal vascular endothelial cells was examined by MTT assay. HRCEC cells were cultured in a 37° C., 5% CO2 incubator to a density of 90% or more, and collected by trypsinization. The cells were resuspended in the culture medium and counted under a microscope to adjust the cell concentration to 3.0×10^4 cells/mL. The cell suspension was inoculated into a 96-well plate at 100 μL per well and cultured overnight at 37° C. in a 5% CO2 incubator. After the cells were completely adhered, the angiogenesis inhibitor polypeptide was added as the administration group, and Avastin was used as the positive control group, and the culture media without any drug was used as a blank control group, and the culture media were diluted to each predetermined concentration. Each dilution was separately added to a 96-well plate at 100 μL per well and incubated for 48 h at 37° C. in a 5% CO2 incubator. 20 μL of 5 mg/mL MTT was added to each well of a 96-well plate and incubation was continued for 4 h. The medium was aspirated and dissolved in 100 μL of DMSO per well. […] The formula is as follows: PI (%)=1−administration group/negative group
The test was repeated 3 times independently. The results obtained by the test were expressed as mean±SD, and a statistical T test was performed. *P<0.05 was a significant difference, and **P<0.01 was a very significant difference.

[4] = test system: neovascularization in rat model of premature retinopathy; test: Fluctuating-oxygen rat model of premature retinopathy (endothelial nuclei count); assay type: in vivo; conditions: for Cell nuclei count: day 14
Method: A fluctuating oxygen-induced animal model was used to randomly divide the newborn rats that were naturally delivered on the same day (within 12 hours) into three groups: the oxygenated model group, the oxygenated treatment group, and the normal control group. The oxygenated model group was subdivided into three subgroup models and along with the oxygenated treatment group was placed in a semi-closed oxygen chamber made of plexiglass. The chamber was connected to medical oxygen, and the oxygen analyzer was adjusted to a concentration of 80%±2%. After 24 hours, Nitrogen gas was introduced into the oxygen chamber, and the oxygen concentration was adjusted to 10%±2% and maintained for 24 h. This process was repeated, so that the oxygen concentration in the oxygen chamber is switched between 80% and 10% every 24 hours, and then transferred to the air for 7 days. The oxygen concentration was monitored 8 times a day, and the ambient temperature in the control cabin was 23° C.±2° C. Bedding change, adding food, changing water and replacing mother rats were performed once a day. The normal control group was placed in an animal facility environment. […] The oxygenated therapeutic components were divided into four subgroups, and on the 7th day of modeling, mPEG-SC-HM-1, mPEG2-NHS-HM-1, mPEG-ALD10k-HM-1, and mPEG-bALD-HM-1 were respectively administered by intravitreal injection. Only normal saline was administered to the oxygen model group and the control group. The administrations continued for 1 week. […] After immersion in wax, serial section at thickness of 4 μm was performed, wherein the sections were kept away from the optic disc. The sections are parallel to the sagittal plane of the cornea to the optic disc. Ten sections per eyeball were randomly selected from each eyeball to be stained with hematoxylin and eosin, and the number of vascular endothelial cells that broke through the retinal inner membrane was counted (only the vascular endothelial nucleus closely related to the inner retinal membrane was counted), and the average numbers of endothelial cells per eyeball per slice was counted.

Melanoma tumor cells = test: MTT proliferation inhibition, melanoma cells; assay type: cell-based, human; set-up: concentration or dose not given beside the values; conditions: 48 h
Method: as §1, §2

sarcoma tumor cells = test: MTT proliferation inhibition, sarcoma cells; assay type: cell-based, human; set-up: concentration or dose not given beside the values; conditions: 48 h
Method: as §1, §2

[5] = 100 μg intravitreal for 1 week from day 7, vascular endothelial nuclei per slice
[6] = 200 μg intravitreal for 1 week from day 7, vascular endothelial nuclei per slice

Row | Substance | rate of growth inhibition (Liver cancer tumor cells) [%] | rate of growth inhibition [1] [%] | rate of growth inhibition [2] [%] | Inhibition rate ([3]; 60 μg/mL) | A570 nm-A630 nm ([3]; 60 μg/mL) | Inhibition rate ([3]; 80 μg/mL) | A570 nm-A630 nm ([3]; 80 μg/mL) | Inhibition rate ([3]; 100 μg/mL) | A570 nm-A630 nm ([3]; 100 μg/mL) | Cell nuclei count [4, 5] | rate of growth inhibition (Melanoma tumor cells) [%] | rate of growth inhibition (sarcoma tumor cells) [%] | Inhibition rate ([3]; 120 μg/mL) [%*] | A570 nm-A630 nm ([3]; 120 μg/mL) | Cell nuclei count [4, 6] | Inhibition rate ([3]; 40 μg/mL) | A570 nm-A630 nm ([3]; 40 μg/mL) | other results
1 | mPEG-ALD20k-Arg-Gly-Ala-Asp-Arg-Ala-Gly-Gly-Gly-Gly-Arg-Gly-Asp ({mPEG‑ALD 20 kDa}-RGADRAGGGGRGD) [mPEG-ALD20k-HM-1] | 65.31 ± 18.18 | 43.99 ± 12.77 | 89.37 ± 23.47 | 46.21%* | 0.7050 ± 0.07965 | 55.90%** | 0.5780 ± 0.06987 | 68.15%* | 0.4175 ± 0.07301 | 7.036 ± 1.315 | 80.71 ± 23.46 | 50.96 ± 11.68 | – | – | – | – | – | inhibition rate of HRCEC proliferation ([3]; 100 μg/mL): 68.15% and 69.12%; vascular endothelial cell nuclei count ([4]; neonatal rats, 100 μg intravitreal, 1 week): 7.036±1.315
2 | mPEG-ALD40k-Arg-Gly-Ala-Asp-Arg-Ala-Gly-Gly-Gly-Gly-Arg-Gly-Asp ({mPEG‑ALD 40 kDa}-RGADRAGGGGRGD) [mPEG-ALD40k-HM-1] | 60.78 ± 10.88 | 42.91 ± 11.65 | 82.59 ± 21.37 | – | – | 43.11%* | 0.7457 ± 0.07094 | 54.23%** | 0.5999 ± 0.07138 | – | 75.18 ± 21.75 | 45.93 ± 10.77 | 62.08 | 0.4970 ± 0.07653 | 8.673 ± 2.756 | – | – | –
3 | mPEG-SC5k-Arg-Gly-Ala-Asp-Arg-Ala-Gly-Gly-Gly-Gly-Arg-Gly-Asp ({mPEG‑SC 5 kDa}-RGADRAGGGGRGD) [mPEG-SC5k-HM-1] | 51.34 ± 11.25 | 38.37 ± 15.61 | 60.25 ± 16.09 | 62.10%* | 0.4968 ± 0.08679 | – | – | – | – | – | 61.27 ± 18.13 | 39.42 ± 11.15 | – | – | – | 51.76%** | 0.6323 ± 0.08797 | Inhibition rate ([3]; 20 μg/mL): 42.22%*; A570 nm-A630 nm ([3]; 20 μg/mL): 0.7573 ± 0.09088; Cell nuclei count ([4]; 25 μg intravitreal for 1 week from day 7, vascular endothelial nuclei breaking through inner retinal membrane per slice): 9.104 ± 3.087
4 | mPEG-SC10k-Arg-Gly-Ala-Asp-Arg-Ala-Gly-Gly-Gly-Gly-Arg-Gly-Asp ({mPEG‑SC 10 kDa}-RGADRAGGGGRGD) [mPEG-SC10k-HM-1] | 57.18 ± 12.35 | 45.39 ± 12.63 | 65.29 ± 19.06 | 55.39%** | 0.5847 ± 0.07356 | 68.84%* | 0.4084 ± 0.07298 | – | – | – | 70.62 ± 20.17 | 45.49 ± 11.89 | – | – | – | 46.44%* | 0.7020 ± 0.07964 | inhibition rate of HRCEC proliferation ([3]; 80 μg/mL): 68.84%; Cell nuclei count ([4]; 50 μg intravitreal for 1 week from day 7, vascular endothelial nuclei per slice): 8.528 ± 3.109
5 | mPEG-SC20k-Arg-Gly-Ala-Asp-Arg-Ala-Gly-Gly-Gly-Gly-Arg-Gly-Asp ({mPEG‑SC 20 kDa}-RGADRAGGGGRGD) [mPEG-SC20k-HM-1] | 61.09 ± 14.09 | 49.35 ± 10.04 | 76.93 ± 23.14 | 45.71%* | 0.7116 ± 0.07539 | 53.92%** | 0.6040 ± 0.06996 | 66.64%* | 0.4372 ± 0.0721 | 7.372 ± 2.078 | 72.14 ± 20.69 | 48.93 ± 10.53 | – | – | – | – | – | –
6 | mPEG-SC40k-Arg-Gly-Ala-Asp-Arg-Ala-Gly-Gly-Gly-Gly-Arg-Gly-Asp ({mPEG‑SC 40 kDa}-RGADRAGGGGRGD) [mPEG-SC40k-HM-1] | 60.37 ± 14.74 | 45.93 ± 12.72 | 70.27 ± 21.37 | – | – | 42.27%* | 0.7567 ± 0.07109 | 53.16%** | 0.6139 ± 0.0712 | – | 68.73 ± 21.25 | 45.26 ± 11.61 | 63.68 | 0.4760 ± 0.07009 | 8.089 ± 2.935 | – | – | –
